Data set [1] relates to NFkB pathway THP1-Dual cells. In words: Stimulation of human THP-1 monocytic cells, THP1-Dual reporter cells (SEAP, NF-kB). In kind it is cell-based. As to the method:
The compounds/conjugates of formula (II) according to the disclosure were subjected to pharmacological testing for determining their activity on human monocytic cells that express at their membrane surface Fc receptors that show binding specificity for the Fc part of the compounds/conjugates of formula (II). The below tests involving measuring the in vitro activity of some compounds/conjugates of formula (II) of the disclosure were carried out using THP1-Dual™ cells as reporter monocyte cells. […] THP1-Dual™ cells (#thpd-nfis) from InvivoGen were used according to the manufacturer's instructions. The cells were obtained by stable integration of two inducible reporter constructs in human THP-1 monocyte cells: an optimized Secreted Embryonic Alkaline Phosphatase (SEAP) reporter gene which is placed under the control of the IFN-β minimal promoter fused to five NF-κB and three c-Rel binding sites and a Secreted Lucia luciferase gene which is placed under the control of an ISG54 minimal promoter fused with five interferon (IFN)-stimulated response elements. As a result, THP1-Dual™ cells allow to study the activation of the NF-κB pathway by monitoring the activity of SEAP, and the interferon regulatory factor pathway, by assessing the activity of Lucia luciferase.

In data set [2] the target is Fc receptors at the membrane surface of human THP-1 monocytic cells. In words: cell-based or functional assay.
Data set [3] has as its target human CEACAM5 (human) (UniProt P06731). In words: cell-based or functional assay.
The conditions of data set [4]: monotherapy, intravenous; cited from earlier work.
Data set [5] concerns the target T1, human TLR7 (Homo sapiens, UniProt Q9NYK1).
T1 construct: host or cells: HEK293 (HEK-Blue hTLR7); engineered variants additionally transfected with tumor antigen genes
T1 sequence (Q9NYK1 27-1049): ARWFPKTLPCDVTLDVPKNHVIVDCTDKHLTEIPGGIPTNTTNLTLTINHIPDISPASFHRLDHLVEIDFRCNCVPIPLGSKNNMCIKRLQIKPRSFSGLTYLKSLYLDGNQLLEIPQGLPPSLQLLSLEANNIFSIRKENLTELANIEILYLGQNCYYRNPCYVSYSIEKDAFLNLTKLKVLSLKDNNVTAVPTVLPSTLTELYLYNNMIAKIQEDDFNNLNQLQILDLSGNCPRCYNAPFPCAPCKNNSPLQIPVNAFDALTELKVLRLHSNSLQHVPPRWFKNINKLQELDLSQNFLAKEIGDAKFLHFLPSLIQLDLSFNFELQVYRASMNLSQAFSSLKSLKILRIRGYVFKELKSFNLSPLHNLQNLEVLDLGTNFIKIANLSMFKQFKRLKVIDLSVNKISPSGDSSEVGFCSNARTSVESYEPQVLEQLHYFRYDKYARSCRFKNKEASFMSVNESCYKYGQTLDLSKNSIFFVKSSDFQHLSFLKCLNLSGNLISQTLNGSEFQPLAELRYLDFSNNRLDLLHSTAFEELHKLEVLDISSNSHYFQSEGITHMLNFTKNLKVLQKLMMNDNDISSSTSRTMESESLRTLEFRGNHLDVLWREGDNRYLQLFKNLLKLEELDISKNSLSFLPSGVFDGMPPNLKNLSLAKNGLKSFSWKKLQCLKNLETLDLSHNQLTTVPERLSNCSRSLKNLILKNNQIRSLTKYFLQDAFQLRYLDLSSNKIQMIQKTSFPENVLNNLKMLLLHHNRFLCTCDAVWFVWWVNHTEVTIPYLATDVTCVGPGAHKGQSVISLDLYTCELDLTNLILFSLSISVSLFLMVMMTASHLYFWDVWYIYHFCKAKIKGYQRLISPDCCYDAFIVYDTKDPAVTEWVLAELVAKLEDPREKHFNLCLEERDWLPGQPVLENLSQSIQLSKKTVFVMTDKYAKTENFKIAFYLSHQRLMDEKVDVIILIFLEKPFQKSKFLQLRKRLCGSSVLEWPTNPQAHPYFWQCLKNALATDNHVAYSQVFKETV
Briefly: TLR7 pathway activation, parental HEK-Blue hTLR7 reporter cells (SEAP). In kind it is cell-based. On the procedure:
The below tests involving measuring the in vitro activity of some compounds of the disclosure on human TLR7 pathway were carried out using parental HEK-Blue™ hTLR7 cells and engineered tumor antigen-expressing HEK-Blue™ hTLR7 cells respectively as reporter cells.
(§1) HEK-Blue™ hTLR7 Cells (#hkb-htlr7) and HEK-Blue™ hTLR8 Cells (#hkb-htlr8) cells from InvivoGen and the engineered tumor antigen expressing cells were used according to the manufacturer's instructions. The HEK-Blue™ hTLR7 and HEK-Blue™ hTLR8 cells were obtained by co-transfection of the hTLR7 or hTLR8 gene in HEK293 cells and an optimized Secreted Embryonic Alkaline Phosphatase (SEAP) reporter gene which is placed under the control of the IFN-β minimal promoter fused to five NF-κB and AP-1-binding sites. The human tumor antigen expressing HEK-Blue™ hTLR7 and hTLR8 cells were obtained by transfection of the tumor antigen genes in the parental cells followed by a polyclonal selection to enrich in cells overexpressing the tumor antigen. Stimulation with a TLR7/8 ligand activates NF-kB and AP-1 which induce the production of SLAP. The cells are seeded in 96-well plate at 3.10E4 cells/well and incubated 24 hours at 37C, 5% CO2 before adding the conjugates to be evaluated. The cells are subsequently incubated with 3-fold serial dilutions of each of the compounds (0.01 nM to 1 μM) for 96 hours at 37° C., 5% CO2. Next, 20 μL of the supernatant is harvested and incubated with 200 μL of QUANTI-Blue™ Solution.

The target of data set [6] is T2, human TLR8 (Homo sapiens, UniProt Q9NR97).
T2 construct: host or cells: HEK293 (HEK-Blue hTLR8); engineered variant additionally transfected with the CEACAM5 tumor antigen gene
T2 sequence (Q9NR97 27-1041): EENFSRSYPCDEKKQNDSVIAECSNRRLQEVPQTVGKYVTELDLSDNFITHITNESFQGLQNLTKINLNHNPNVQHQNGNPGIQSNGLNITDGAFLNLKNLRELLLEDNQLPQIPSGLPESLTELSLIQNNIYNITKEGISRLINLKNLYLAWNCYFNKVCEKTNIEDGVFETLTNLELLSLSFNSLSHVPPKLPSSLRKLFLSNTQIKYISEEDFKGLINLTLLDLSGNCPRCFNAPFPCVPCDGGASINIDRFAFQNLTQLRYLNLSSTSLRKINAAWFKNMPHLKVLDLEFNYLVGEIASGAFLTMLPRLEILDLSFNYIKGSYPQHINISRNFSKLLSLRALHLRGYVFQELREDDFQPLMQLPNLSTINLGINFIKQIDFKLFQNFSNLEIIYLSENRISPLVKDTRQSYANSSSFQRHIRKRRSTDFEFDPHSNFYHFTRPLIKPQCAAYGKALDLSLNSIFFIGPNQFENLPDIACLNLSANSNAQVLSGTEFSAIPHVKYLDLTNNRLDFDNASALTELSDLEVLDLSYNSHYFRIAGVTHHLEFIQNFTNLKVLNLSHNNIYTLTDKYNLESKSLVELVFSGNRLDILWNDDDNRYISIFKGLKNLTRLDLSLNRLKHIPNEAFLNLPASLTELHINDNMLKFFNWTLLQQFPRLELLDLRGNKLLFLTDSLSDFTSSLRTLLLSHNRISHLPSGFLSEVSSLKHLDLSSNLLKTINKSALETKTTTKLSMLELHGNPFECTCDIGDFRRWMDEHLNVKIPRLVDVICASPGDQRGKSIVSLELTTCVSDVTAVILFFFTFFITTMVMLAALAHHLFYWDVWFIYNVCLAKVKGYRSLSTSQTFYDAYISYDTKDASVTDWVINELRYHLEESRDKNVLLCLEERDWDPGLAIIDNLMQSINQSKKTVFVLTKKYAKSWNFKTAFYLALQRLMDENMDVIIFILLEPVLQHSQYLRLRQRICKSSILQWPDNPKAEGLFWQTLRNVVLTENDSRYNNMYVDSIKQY
In words: TLR8 pathway activation, parental HEK-Blue hTLR8 reporter cells (SEAP). In kind it is cell-based. The settings on record: unnumbered table b703.
Text: as §1, with “evaluated.” for “evaluated. The cells are subsequently incubated with 3-fold serial dilutions of each of the compounds (0.01 nM to 1 μM) for 96 hours at 37° C., 5% CO2. Next, 20 μL of the supernatant is harvested and incubated with 200 μL of QUANTI-Blue™ Solution.”

Where [7] appears, read: Homo sapiens, THP1-Dual, Table 6, reference ligands.
Where [8] appears, read: Table 1a, 96 hours, read-out: EC50 HEKBlue-hTLR7.

Where two headings read alike, the source gives them in different places. Bounds are passed on as bounds.

human CEACAM5 (human), sequence (P06731 35-685 limits assumed): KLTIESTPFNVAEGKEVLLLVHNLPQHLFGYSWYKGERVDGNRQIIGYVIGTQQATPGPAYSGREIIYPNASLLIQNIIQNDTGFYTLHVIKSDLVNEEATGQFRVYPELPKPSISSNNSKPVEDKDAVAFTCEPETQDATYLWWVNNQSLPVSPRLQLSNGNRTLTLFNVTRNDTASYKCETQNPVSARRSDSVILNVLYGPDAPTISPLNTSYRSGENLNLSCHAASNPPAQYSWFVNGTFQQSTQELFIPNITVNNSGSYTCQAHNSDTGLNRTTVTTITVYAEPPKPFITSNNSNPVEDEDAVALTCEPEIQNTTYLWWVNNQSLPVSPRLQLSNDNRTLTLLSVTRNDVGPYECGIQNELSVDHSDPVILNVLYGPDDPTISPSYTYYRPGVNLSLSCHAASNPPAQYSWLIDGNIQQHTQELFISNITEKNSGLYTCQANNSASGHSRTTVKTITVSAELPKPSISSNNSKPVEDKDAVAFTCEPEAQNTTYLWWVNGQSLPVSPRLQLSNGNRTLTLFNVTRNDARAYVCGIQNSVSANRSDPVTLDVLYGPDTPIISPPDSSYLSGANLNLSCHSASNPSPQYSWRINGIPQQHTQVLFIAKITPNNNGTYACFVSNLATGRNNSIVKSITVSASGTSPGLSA

The EC50 is the concentration giving half of the maximal effect. Consider “CEACAM5_Tusamitamab-PEG24-R848 ADC [Example 20a]”, for which the midpoint of the response in data set [1] (Table 7a, 96 hours), the EC50, lay at 0.9 nM.

In turn, “CEACAM5_Tusamitamab-PEG4-R848 ADC [Example 2]” showed a concentration giving a half-maximal response (EC50) in data set [1] (Table 7a, 96 hours) of 0.8 nM.

Consider `CCOCc1nc2c(N)nc3ccccc3c2n1CC(C)(C)O` [Example R848, 4-amino-2-(ethoxymethyl)-alpha, alpha-dimethyl-1H-imidazo(4,5-c)quinoline-1-ethanol, reference compound], for which the EC50 turned out to be 212 nM in data set [1] (setting [7]) and 238 nM in data set [1] (Homo sapiens, THP1-Dual, Table 7b, 96 hours).

The compound “CEACAM5_Tusamitamab-PEG24-R848 ADC (Example 20a) (antibody)” yielded an EC50 NFkB pathway THP1-Dual cells in data set [2] of 0.9 nM.

For “CEACAM5_Tusamitamab-PEG12-R848 ADC (Example 14) (antibody)”, the EC50 NFkB pathway THP1-Dual cells in data set [2] came to 2.8 nM.

With “CEACAM5_Tusamitamab-PEG8-R848 ADC (Example 8) (antibody)”, the EC50 NFkB pathway THP1-Dual cells in data set [2] turned out to be 1.9 nM.

In data set [2], “CEACAM5_Tusamitamab-PEG4-R848 ADC (Example 2) (antibody)” returned an EC50 NFkB pathway THP1-Dual cells of 0.8 nM.

As to Irrelevant human IgG1 (antibody), in data set [3], the Internalized fluorescent intensity (Median) on HEKBlue-hTLR7-CEACAM5, 4 hours was found to be 144; the Internalized fluorescent intensity (Median) on HEKBlue-hTLR7-CEACAM5, 24 hours stood at 525; the Internalized fluorescent intensity (Median) on HEKBlue-hTLR7-CEACAM5, 48 hours stood at 738; the Internalized fluorescent intensity (Median) on HEKBlue-hTLR7-CEACAM5, 72 hours was 833. In data set [3], this compound displayed an Internalized fluorescent intensity (Median) on HEKBlue-hTLR8-CEACAM5, 4 hours of 68; an Internalized fluorescent intensity (Median) on HEKBlue-hTLR8-CEACAM5, 24 hours of 120; an Internalized fluorescent intensity (Median) on HEKBlue-hTLR8-CEACAM5, 48 hours of 151; an Internalized fluorescent intensity (Median) on HEKBlue-hTLR8-CEACAM5, 72 hours of 167.

As for “CEACAM5_Tusamitamab-PEG8-R848 ADC [Example 8]”, the EC50 in data set [1] (Table 7a, 96 hours) amounted to 1.9 nM.

Turning to `CCNCc1nc2c(N)nc3ccccc3c2n1CC(C)(C)O` [Gardiquimod, reference compound], the concentration for a half-maximal effect (EC50) in data set [1] (setting [7]) is above 4000 nM.

As for `CCOCc1nc2c(N)nc3ccccc3c2n1CC(C)(C)O.O=S(=O)(O)O` [BDB-001], the “treatment-related adverse events, share of the enrolled patients” value in data set [4] is listed as “around 78%”.

Compound `CCCN(CCC)C(=O)C1=Cc2ccc(-c3ccc(C(=O)N4CCCC4)cc3)cc2N=C(N)C1` [Motolimod, reference compound] had an EC50 in data set [1] (setting [7]) of 394 nM.

On to “CEACAM5_Tusamitamab_E152C_S375C-PEG24-R848 ADC [Example 43]”, for which the 50% effective concentration (EC50) in data set [5] (Table 1c, 96 hours, read-out: EC50 HEKBlue-hTLR7) is above 1000 nM; in data set [1] (Table 7b, 96 hours), 2 nM.

For the compound “EGFR_cetuximab-PEG24-R848 ADC [Example 23]”, the EC50 in data set [5] (setting [8]) was above 1000 nM.

Turning to “CEACAM5_Tusamitamab-PEG12-R848 ADC [Example 14]”, the EC50 in data set [1] (Table 7a, 96 hours) is 2.8 nM.

In the case of `CCOCc1nc2c(N)nc3ccccc3c2n1CC(C)(C)N` [Example 3M012, 1-(2-amino-2-methylpropyl)-2-(ethoxymethyl)-1H-imidazo[4,5-c]quinolin-4-amine, reference compound], the EC50 was 518 nM in data set [5] (setting [8]); 518 nM in data set [5] (unnumbered table b703, read-out: EC50 on HEK-Blue ™ hTLR7 cells); 2540 nM in data set [6].

These data come from patent publication US20260152497A1, “MIDAZO[4,5-c]QUINOLINE-4-AMINE COMPOUNDS AND CONJUGATES THEREOF, THEIR PREPARATION, AND THEIR [sequence] APPLICATIONS” (SANOFI, priority 2021, published 2026).
